Where a SMILES comes first, the peptide text is derived from it.
How the values were obtained:
[1] = molecular target: T1, human Oxytocin (OTR) receptor (Homo sapiens, UniProt P30559); test: Calcium flux assay (FLIPR) in CHO cells expressing human OTR; assay type: cell-based; conditions: for Emax: CHO, read-out: hOT efficacy; for Emax / hOT efficacy: maximum response normalized to endogenous full agonist = 100%; for EC50: agonist mode, CHO cells, calcium flux FLIPR, read-out: hOT EC50
T1 construct: expressed in transfected cells
T1 sequence (P30559 1-389): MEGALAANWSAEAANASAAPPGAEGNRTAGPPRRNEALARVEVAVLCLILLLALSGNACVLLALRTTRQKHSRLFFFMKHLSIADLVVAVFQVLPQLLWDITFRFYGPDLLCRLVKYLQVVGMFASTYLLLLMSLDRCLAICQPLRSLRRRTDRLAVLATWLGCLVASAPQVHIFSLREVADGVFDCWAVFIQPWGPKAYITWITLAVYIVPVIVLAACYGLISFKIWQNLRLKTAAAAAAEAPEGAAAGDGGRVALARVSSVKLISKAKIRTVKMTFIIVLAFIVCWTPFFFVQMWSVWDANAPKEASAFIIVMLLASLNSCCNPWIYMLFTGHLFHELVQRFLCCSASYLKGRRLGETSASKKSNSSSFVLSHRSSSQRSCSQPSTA
Text: (§1) Chines Hamster Ovary (CHO) cells were transfected with expression plasmids encoding either the human Vla, the human Oxytocin (OTR) or the humanV2 receptor, the later in combination with the chimeric Gqs5 G protein to redirect the signal to Calcium flux. Stable cells were cloned by limiting dilution to yield monoclonal cell lines expressing either human Vla, human V2+Gqs5 or human OTR receptors and selected based on functional responses detected on a fluorometric imaging plate reader (FLIPR) detecting Calcium flux in the cell after receptor activation. The stable cell lines were grown in F-12 K Nutrient Mixture (Kaighns Modification), containing 10% foetal bovine serum (FBS), 1% penicillin-streptomycin, 1% L-glutamate, 200 ug/ml Geneticin at 37° C. in a 10% CO2 incubator at 95% humidity.
(§2) Calcium Flux Assays Using Fluorescent Imaging (Fluorometric Imaging Plate Reader, FLIPR)
(§3) On the afternoon before the assay, cells were plated at a density of 50,000 cells/well into black 96 well plates with clear bottoms to allow cell inspection and fluorescence measurements from the bottom of each well. The density of cells was sufficient to yield a confluent monolayer the next day. Hanks balanced salt solution, without phenol red, containing 20 mM HEPES (pH 7.3) and 2.5 mM probenecid (assay buffer) was prepared fresh for each experiment. Compound dilutions were made using a Beckman Biomek 2000 laboratory automation workstation, in assay buffer containing 1% DMSO. The dye-loading buffer consisted of a final concentration of 2 μM Fluo-4-AM (dissolved in DMSO and pluronic acid) in assay buffer. The existing culture media was removed from the wells and 100 μl of the dye-loading buffer was added to each well and incubated for approximately 60 min at 37° C. in a 5% CO2 incubator at 95% humidity. Once dye-loaded, the cells were washed thoroughly on an Embla cell washer with the assay buffer to remove any unincorporated dye. Exactly 100 μl assay buffer was left in each well.
(§4) Each 96 well plate containing dye-loaded cells was placed into the FLIPR machine and the laser intensity set to a suitable level to detect low basal fluorescence. To test compounds as agonists, 25 μl diluted compound was added to the plate 10 seconds into the fluorescent measurements and fluorescent response was recorded for 5 minutes. The fluorescence data was normalized to the endogenous full agonist dose-response set at 100% for the maximum response and 0% for the minimum. Each agonist concentration-response curve was constructed using a four parameter logistic equation with Microsoft Excel XLFit as follows: Y=Minimum+((Maximum−Minimum)/(1+10^(LogEC50−X)nH)), where y is the % normalized fluorescence, minimum is the minimum y, maximum is the maximum y, log EC50 is the log10 concentration which produces 50% of the maximum induced fluorescence, x is the log10 of the concentration of the agonist compound and H is the slope of the curve (the Hill Coefficient). The maximum value gives the efficacy of the agonist test compound in percentage. The concentration of agonist that produced a half-maximal response is represented by the EC50 value, the logarithm of which yielded the pEC50 value.

human V2 receptor = molecular target: T2, human V2 receptor (Homo sapiens, UniProt P30518); test: Calcium flux assay (FLIPR) in CHO cells expressing human V2+Gqs5; assay type: cell-based; conditions: for Emax: CHO, maximum response normalized to endogenous full agonist = 100%, read-out: hV2 efficacy; for EC50: agonist mode, CHO cells with chimeric Gqs5, calcium flux FLIPR, read-out: hV2 EC50
T2 construct: expressed in transfected cells
T2 sequence (P30518 whole entry): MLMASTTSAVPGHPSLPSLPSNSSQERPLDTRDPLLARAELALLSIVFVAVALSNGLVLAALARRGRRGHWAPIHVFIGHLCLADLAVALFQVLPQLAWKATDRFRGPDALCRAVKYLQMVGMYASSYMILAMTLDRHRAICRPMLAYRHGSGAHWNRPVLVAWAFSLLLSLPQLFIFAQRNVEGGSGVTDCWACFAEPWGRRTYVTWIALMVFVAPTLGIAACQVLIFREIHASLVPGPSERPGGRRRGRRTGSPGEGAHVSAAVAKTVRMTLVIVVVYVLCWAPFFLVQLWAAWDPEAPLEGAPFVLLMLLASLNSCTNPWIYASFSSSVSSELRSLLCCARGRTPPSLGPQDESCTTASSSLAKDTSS
Text: as §1, §2, §3, §4

Row | Emax [1] | EC50 [1] | hOT efficacy [1] | Emax (human V2 receptor) | EC50 (human V2 receptor) | Structure (SMILES)
1 | 105% | 2.2 nM | – | – | – | CC[C@H](C)[C@@H]1NC(=O)[C@H](Cc2ccc(O)cc2)NC(=O)CCS(=O)(=O)CC[C@@H](C(=O)N(C)CC(=O)N[C@@H](Cc2ccc(O)cc2)C(=O)NCC(N)=O)NC(=O)[C@H](CC(N)=O)NC(=O)[C@H](CCC(N)=O)NC1=O [Example 17] (HELM PEPTIDE1{Y.I.Q.N.[O=C([C@H](CCS(=O)(=O)CCC(=O)[*:3])N[*:1])[*:2]].[Sar].Y.G.[am]}$PEPTIDE1,PEPTIDE1,1:R1-5:R3$$$V2.0)
2 | 102% | – | – | – | – | CC[C@H](C)[C@@H]1NC(=O)[C@H](Cc2ccc(O)cc2)NC(=O)CCS(=O)(=O)CC[C@@H](C(=O)N(C)CC(=O)N[C@@H](CO)C(=O)NCC(N)=O)NC(=O)[C@H](CC(N)=O)NC(=O)[C@H](CCC(N)=O)NC1=O [Example 18] (HELM PEPTIDE1{Y.I.Q.N.[O=C([C@H](CCS(=O)(=O)CCC(=O)[*:3])N[*:1])[*:2]].[Sar].S.G.[am]}$PEPTIDE1,PEPTIDE1,1:R1-5:R3$$$V2.0; C-terminus assumed; bridges inferred)
3 | 110% | 1.4 nM | – | – | – | CC[C@H](C)[C@@H]1NC(=O)[C@H](Cc2ccc(O)cc2)NC(=O)CCS(=O)(=O)CC[C@@H](C(=O)N(C)CC(=O)N[C@@H](C)C(=O)NCC(N)=O)NC(=O)[C@H](CC(N)=O)NC(=O)[C@H](CCC(N)=O)NC1=O [Example 19] (HELM PEPTIDE1{Y.I.Q.N.[O=C([C@H](CCS(=O)(=O)CCC(=O)[*:3])N[*:1])[*:2]].[Sar].A.G.[am]}$PEPTIDE1,PEPTIDE1,1:R1-5:R3$$$V2.0)
4 | 113% | 12.9 nM | – | – | – | CC[C@H](C)[C@@H]1NC(=O)[C@H](Cc2ccc(O)cc2)NC(=O)CCS(=O)(=O)CC[C@@H](C(=O)N(C)CC(=O)N[C@@H](CN)C(=O)NCC(N)=O)NC(=O)[C@H](CC(N)=O)NC(=O)[C@H](CCC(N)=O)NC1=O [Example 20] (HELM PEPTIDE1{Y.I.Q.N.[O=C([C@H](CCS(=O)(=O)CCC(=O)[*:3])N[*:1])[*:2]].[Sar].[NC[C@H](N[*:1])C(=O)[*:2]].G.[am]}$PEPTIDE1,PEPTIDE1,1:R1-5:R3$$$V2.0)
5 | 117% | 0.4 nM | – | – | – | CC[C@H](C)[C@@H]1NC(=O)[C@H](Cc2ccc(O)cc2)NC(=O)CCS(=O)(=O)CC[C@@H](C(=O)N(C)CC(=O)N[C@H](C(=O)NCC(N)=O)C2CCCCC2)NC(=O)[C@H](CC(N)=O)NC(=O)[C@H](CCC(N)=O)NC1=O [Example 21] (HELM PEPTIDE1{Y.I.Q.N.[O=C([C@H](CCS(=O)(=O)CCC(=O)[*:3])N[*:1])[*:2]].[Sar].[O=C([C@@H](N[*:1])C1CCCCC1)[*:2]].G.[am]}$PEPTIDE1,PEPTIDE1,1:R1-5:R3$$$V2.0)
6 | 109% | 2.5 nM | – | – | – | CC[C@H](C)[C@@H]1NC(=O)[C@H](Cc2ccc(O)cc2)NC(=O)CCS(=O)(=O)CC[C@@H](C(=O)N(C)CC(=O)N[C@@](C)(CC(C)C)C(=O)NCC(N)=O)NC(=O)[C@H](CC(N)=O)NC(=O)[C@H](CCC(N)=O)NC1=O [Example 22] (HELM PEPTIDE1{Y.I.Q.N.[O=C([C@H](CCS(=O)(=O)CCC(=O)[*:3])N[*:1])[*:2]].[Sar].[CC(C)C[C@](C)(N[*:1])C(=O)[*:2]].G.[am]}$PEPTIDE1,PEPTIDE1,1:R1-5:R3$$$V2.0)
7 | – | 23 nM | 123% | – | – | CCC[C@H](NC(=O)[C@@H]1CCS(=O)(=O)CCC(=O)N[C@@H](Cc2ccc(O)cc2)C(=O)N[C@@H]([C@@H](C)CC)C(=O)N[C@@H](CCC(N)=O)C(=O)N[C@@H](CC(N)=O)C(=O)N1)C(=O)N[C@@H](CC(C)C)C(=O)NCC(N)=O [Example 23] (HELM PEPTIDE1{Y.I.Q.N.[O=C([C@H](CCS(=O)(=O)CCC(=O)[*:3])N[*:1])[*:2]].[Nva].L.G.[am]}$PEPTIDE1,PEPTIDE1,1:R1-5:R3$$$V2.0)
8 | – | 40 nM | 114% | – | – | CCCC[C@H](NC(=O)[C@@H]1CCS(=O)(=O)CCC(=O)N[C@@H](Cc2ccc(O)cc2)C(=O)N[C@@H]([C@@H](C)CC)C(=O)N[C@@H](CCC(N)=O)C(=O)N[C@@H](CC(N)=O)C(=O)N1)C(=O)N[C@@H](CC(C)C)C(=O)NCC(N)=O [Example 24] (HELM PEPTIDE1{Y.I.Q.N.[O=C([C@H](CCS(=O)(=O)CCC(=O)[*:3])N[*:1])[*:2]].[Nle].L.G.[am]}$PEPTIDE1,PEPTIDE1,1:R1-5:R3$$$V2.0)
9 | – | 16 nM | 137% | – | – | CC[C@H](C)[C@@H]1NC(=O)[C@H](Cc2ccc(O)cc2)NC(=O)CCS(=O)(=O)CC[C@@H](C(=O)N[C@@H](CO)C(=O)N[C@@H](CC(C)C)C(=O)NCC(N)=O)NC(=O)[C@H](CC(N)=O)NC(=O)[C@H](CCC(N)=O)NC1=O [Example 25] (HELM PEPTIDE1{Y.I.Q.N.[O=C([C@H](CCS(=O)(=O)CCC(=O)[*:3])N[*:1])[*:2]].S.L.G.[am]}$PEPTIDE1,PEPTIDE1,1:R1-5:R3$$$V2.0)
10 | 140% | 7 nM | – | – | – | CC[C@H](C)[C@@H]1NC(=O)[C@H](Cc2ccc(O)cc2)NC(=O)CCS(=O)(=O)CC[C@@H](C(=O)N[C@@H](CCO)C(=O)N[C@@H](CC(C)C)C(=O)NCC(N)=O)NC(=O)[C@H](CC(N)=O)NC(=O)[C@H](CCC(N)=O)NC1=O [Example 26] (HELM PEPTIDE1{Y.I.Q.N.[O=C([C@H](CCS(=O)(=O)CCC(=O)[*:3])N[*:1])[*:2]].[O=C([C@H](CCO)N[*:1])[*:2]].L.G.[am]}$PEPTIDE1,PEPTIDE1,1:R1-5:R3$$$V2.0)
11 | 105% | 0.5 nM | – | 143% | 3340 nM | CC[C@H](C)[C@@H]1NC(=O)[C@H](Cc2ccc(O)cc2)NC(=O)CCS(=O)(=O)CC[C@@H](C(=O)N(CC(=O)N[C@H](C(=O)NCC(N)=O)C(C)C)C2CC2)NC(=O)[C@H](CC(N)=O)NC(=O)[C@H](CCC(N)=O)NC1=O [Example 29] (HELM PEPTIDE1{Y.I.Q.N.[O=C([C@H](CCS(=O)(=O)CCC(=O)[*:3])N[*:1])[*:2]].[O=C(CN(C1CC1)[*:1])[*:2]].V.G.[am]}$PEPTIDE1,PEPTIDE1,1:R1-5:R3$$$V2.0)
12 | – | 1 nM | 97% | 131% | 6340 nM | CC[C@H](C)[C@@H]1NC(=O)[C@H](Cc2ccc(O)cc2)NC(=O)CCS(=O)(=O)CC[C@@H](C(=O)N(CC(=O)NC(C)(C)C(=O)NCC(N)=O)C2CC2)NC(=O)[C@H](CC(N)=O)NC(=O)[C@H](CCC(N)=O)NC1=O [Example 30] (HELM PEPTIDE1{Y.I.Q.N.[O=C([C@H](CCS(=O)(=O)CCC(=O)[*:3])N[*:1])[*:2]].[O=C(CN(C1CC1)[*:1])[*:2]].[Aib].G.[am]}$PEPTIDE1,PEPTIDE1,1:R1-5:R3$$$V2.0)
13 | 115% | 0.4 nM | – | 150% | 2940 nM | CC[C@H](C)[C@H](NC(=O)CN(C(=O)[C@@H]1CCS(=O)(=O)CCC(=O)N[C@@H](Cc2ccc(O)cc2)C(=O)N[C@@H]([C@@H](C)CC)C(=O)N[C@@H](CCC(N)=O)C(=O)N[C@@H](CC(N)=O)C(=O)N1)C1CC1)C(=O)NCC(N)=O [Example 31] (HELM PEPTIDE1{Y.I.Q.N.[O=C([C@H](CCS(=O)(=O)CCC(=O)[*:3])N[*:1])[*:2]].[O=C(CN(C1CC1)[*:1])[*:2]].I.G.[am]}$PEPTIDE1,PEPTIDE1,1:R1-5:R3$$$V2.0)

— patent US20170081368A1, “PEPTIDES AS OXYTOCIN AGONISTS” (Hoffmann-La Roche Inc., priority 2014, published 2017)
